According to patent US6472213B1, “Shuttle vectors for the introduction of DNA into mycobacteria and utilization of such bacteria as vaccines” (Institut National de la Sante et de la Recherche Medicale …, priority 1994, dated 2002):

Key:
Assay type in all cases: cell-based, M. smegmatis, M. bovis BCG, M. tuberculosis
[1] = test system: pVN2-carrying mycobacteria
[2] = test system: mycobacteria carrying the plasmid pMR001
[3] = test system: non-transformed control mycobacteria

With `[Cl][Hg][Cl]` [HgCl2] as the compound, how does the “Phenotypes of resistance to mercury” value [1] read?
The value was “R”.

What about the level of resistance [1] of the same compound?
The level of resistance was 40 mg/mL.

And the “Phenotypes of resistance to mercury” value [2]?
The value was “R”.

What about the “Phenotypes of resistance to mercury” value [3] of the same compound?
The value was “S”.
